Publication PMC7136958, “Targeting the pregnane X receptor using microbial metabolite mimicry” (EMBO Molecular Medicine, 2020)
Values joined by “and” are separate entries in the source; they are usually repeats but may differ in a detail not shown here. Identical values can stand only once. Like-named read-outs stand apart in the source and are kept apart here.

Columns and labels:
[1] = tested on: TLR4, CYP3A4, MDR1 mRNA in Caco-2 cells; assay: RT-qPCR of TLR4, CYP3A4, MDR1 mRNA in PXR-transfected Caco-2 cells; assay type: cell-based, human; conditions: 10 μM; for CYP3A4 mRNA expression / MDR1 mRNA expression (Fold Change) / TLR4 mRNA expression: 24 h; for CYP3A4 Mean Fold expression / MDR1 Mean Fold expression / hTLR4 Mean Fold expression: DMSO = 1
Procedure: RT–qPCR was performed using Thermo Fisher PowerUp SYBR Green Master Mix (# A25742) and Thermo Fisher qPCR 7900HT. Each sample was repeated in quadruplicate and normalized to internal control, GAPDH. The entire experiment was repeated at least two separate times. The primer sequences are noted in Table 2.

[2] = tested on: CYP1A1, CYP3A4, MDR1 mRNA in HepaRG cells
Procedure: Caco‐2 cells were purchased from ATCC, and authenticity was validated by multiplexed STR DNA (short tandem repeat deoxyribonucleic acid) profiling performed by Genetica. […] Cells were maintained at 37°C and 5% CO2 in a humidified incubator. […] Three HepaRG™‐derived cell lines, including 5F Clone control cells, and cells with targeted functional PXR and AhR gene knockouts, PXR‐KO and AhR‐KO, respectively, were purchased from Sigma (Czech Republic). Cells were handled according to the manufacturer's protocol. Human hepatocytes were purchased from Biopredic International (France) and Triangle Research Labs, LLC, Lonza (USA). Cultures were maintained in serum‐free medium at 37°C and 5% CO2 in a humidified incubator.
The measurements were performed in triplicate.

[3] = tested on: PXR occupancy of CYP3A4 and MDR1 promoter; assay: Chromatin immunoprecipitation (ChIP) in PXR-transfected LS174T cells; conditions: 10 μM
Procedure: LS174T cells were transfected with pSG5‐PXR (2 μg/plate/1 × 10^7 cells). […] Briefly, cells were chemically cross‐linked with formaldehyde in culture media for 15 min at room temperature. […] Cells were rinsed twice with cold PBS (phosphate‐buffered saline) (pH 7.5) and scraped in PBS supplemented with PIC (protease inhibitor cocktail).
Cell pellets were collected and immediately resuspended in immunoprecipitation (IP) buffer (150 mM NaCl (sodium chloride), 50 mM Tris–HCl at pH 7.5, 5 mM EDTA (ethylenediaminetetraacetic acid), 0.5% NP‐40, 1% Triton X‐100). The nuclei were centrifuged at 12,000 × g for 1 min and resuspended in fresh IP buffer. Chromatin was sheared by sonication to an average size of 0.2‐0.9 kb. Lysates were cleared by centrifugation at 12,000 × g for 10 min. […] 10% (wt/vol) Chelex 100 was added to the beads followed by boiling of the suspension and centrifugation at 12,000 × g for 1 min to obtain chromatin.
Purified chromatin DNA was used to perform RT–qPCR. […] Data were analyzed using SDS 2.2.1 program (ABI Biotechnology).

[4] = target: T1, hPXR-LBD (PXR.1) (Homo sapiens, UniProt O75469); assay: Isothermal titration calorimetry with His-tagged hPXR-LBD; assay type: binding; conditions: 37°C; for Kd: single-site model
T1 construct: made in house; host or cells: E. coli BL21-Gold
T1 sequence (O75469 146-433 limits assumed): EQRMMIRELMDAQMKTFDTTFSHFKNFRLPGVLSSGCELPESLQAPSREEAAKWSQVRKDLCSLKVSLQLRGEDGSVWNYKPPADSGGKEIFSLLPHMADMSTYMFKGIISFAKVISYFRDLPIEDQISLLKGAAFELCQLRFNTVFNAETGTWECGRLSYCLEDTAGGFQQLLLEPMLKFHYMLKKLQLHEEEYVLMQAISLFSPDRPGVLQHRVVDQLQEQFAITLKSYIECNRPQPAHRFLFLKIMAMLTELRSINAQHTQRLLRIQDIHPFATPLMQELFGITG
Procedure: The cloning, expression, and purification of His‐tagged PXR‐LBD were performed as previously published (Wallace et al, 2013) with the following modifications: For protein expression, Luria–Bertani (LB) media were inoculated with a saturated culture of BL21‐Gold cells transformed with HIS‐LIC plasmid containing the PXR‐LBD construct. The mixture was allowed to shake at 37°C until the cells reached an OD600 ~ 0.6, and then, the temperature was reduced to 18°C, at which time IPTG was added (final concentration of 0.1 mM) to induce protein expression. For purification, the His‐tag was not removed, and the uncleaved protein was loaded onto the gel filtration column with buffer containing HEPES (4‐(2‐hydroxyethyl)‐1‐piperazineethanesulfonic acid) (25 mM, pH 7.5) and NaCl (150 mM).
Isothermal titration calorimetry (ITC) was carried out using a VP‐ITC microcalorimeter from MicroCal⁄Malvern Instruments (Northampton, MA, USA). […] In all the experiments, the ligand solution was injected in 10 μl aliquots into the calorimetric cell containing PXR‐LBD (ligand‐binding domain) at a concentration of 3–6 μM. […] The experiments were carried out at 37°C. The heat evolved upon each injection of the ligands was obtained from the integral of the calorimetric signal. The heat associated with binding to PXR‐LBD in the cell was obtained by subtracting the heat of dilution from the heat of reaction.

[5] = tested on: CYP1A1, CYP3A4, MDR1 mRNA in LS180 cells; assay: qRT-PCR of CYP1A1, CYP3A4, MDR1 mRNA in LS180 cells with or without (mock) transfected PXR; conditions: for CYP1A1 mRNA induction: LS180 cells; for CYP1A1 mRNA fold to C / CYP3A4 mRNA fold to C / MDR-1 mRNA fold to C / MDR1 mRNA fold to C: normalised to GAPDH, fold to UT control
Procedure: Cells or primary human hepatocytes from four different donors (HEP200529, HEP220932, HEP200533, and HEP200538) were incubated for 24 h with test compounds; the vehicle was DMSO (0.1% v/v). Total RNA was isolated using TRI Reagent® (Molecular Research Center, Ohio, USA). cDNA was synthesized from 1,000 ng of total RNA using M‐MuLV Reverse Transcriptase (New England Biolabs, Ipswich, Massachusetts, USA) at 42°C for 60 min in the presence of random hexamers (New England Biolabs). Quantitative reverse transcriptase–polymerase chain reaction (qRT–PCR) was performed using LightCycler® 480 Probes Master on a LightCycler® 480 II apparatus (Roche Diagnostic Corporation).
The following protocol was used: An activation step at 95°C for 10 min was followed by 45 cycles of PCR (denaturation at 95°C for 10 s; annealing with elongation at 60°C for 30 s). The measurements were performed in triplicate. Gene expression was normalized per GAPDH as a housekeeping gene. […] Data are expressed as fold induction ± SD over the vehicle‐treated cells. The bar graph depicts one representative experiment of a series of experiments performed in three consecutive passages of cells. Differences were tested using one‐way ANOVA with Dunnett's post hoc test, and P < 0.05 was considered significant.

[6] = tested on: NF-κB; assay: NF-κB nuclear translocation (immunofluorescence) in human intestinal organoids; assay type: cell-based; conditions: 25 μM, with cytokines
Procedure: HIOs and Caco‐2 were exposed to a pro‐inflammatory cytokine cocktail (10 ng/ml IFN‐γ, 10 ng/ml TNF‐α, 50 ng/ml IL‐1β) for 2–24 h in combination with DMSO or FKK5 and FKK6 compounds (10 and 25 μm). Relative mRNA levels of IL‐8 and IL‐6 were determined using quantitative real‐time PCR, with normalization to GAPDH. RNA was isolated using an RNeasy Mini Kit (Qiagen) as per the manufacturer's instructions. On column DNase (Qiagen) was used to remove any contaminating DNA. Next, cDNA was formed using iScript cDNA Synthesis Kit (Bio‐Rad) and 100 ng RNA. qRT–PCR was performed with SsoAdvanced Universal SYBR Green Kit (Bio‐Rad). The following primers were used: IL‐8 Forward: […]; IL‐8 Reverse: […]; IL‐6 Forward: […]; IL‐6 Reverse: […]; GAPDH Forward: […]; GAPDH Reverse: […]. For immunofluorescent staining of NF‐ĸB translocation to the cell nucleus, HIOs and Caco‐2 cell monolayers were fixed in 4% formaldehyde (in 1 × PBS) overnight at 4°C. The formaldehyde was removed by washing with 1 × PBS, and an antigen retrieval step was performed by incubating in 10 mM sodium citrate buffer in a vegetable steamer for 20 min. The samples were then blocked with normal donkey serum (10% in PBS with 0.3% Triton X‐100) for 1 h. […]

Compound | CYP3A4 mRNA expression [1] [fold] | MDR1 mRNA expression (Fold Change) [1] [fold] | TLR4 mRNA expression [1] [fold] | CYP3A4 Mean Fold expression [1] | MDR1 Mean Fold expression [1] | hTLR4 Mean Fold expression [1] | CYP1A1 mRNA induction [2] | CYP1A1 (1A1) mRNA, fold to C ([2]; human, 24 h) [fold] | CYP3A4 (3A4) mRNA, fold to C ([2]; human, 24 h) [fold] | MDR1 mRNA fold to C ([2]; human, 24 h) [fold] | MDR-1 mRNA, fold to C ([2]; human, 24 h) [fold] | ΔH (enthalpy of binding) [4] [kcal/mol] | −TΔS [4] [kcal/mol] | Kd [4] [µM] | CYP1A1 mRNA induction [5] | CYP1A1 mRNA fold to C ([5]; PXR-transfected LS180 cells) | CYP3A4 mRNA fold to C ([5]; PXR-transfected LS180 cells) | MDR-1 mRNA fold to C ([5]; PXR-transfected LS180 cells) | CYP1A1 mRNA fold to C ([5]; mock-transfected LS180 cells) | CYP3A4 mRNA fold to C ([5]; mock-transfected LS180 cells) | other results
C#CCC(O)(c1ccncc1)c1cc2ccccc2n1S(=O)(=O)c1ccccc1 (stereo not shown) [FKK6] | 3.29 | 6.45 | 0.49 | 3.29 | 6.45 | 0.49 | did not induce | 8.33 | 2.91 | 1.04 | 0.98 | -3.5 | -4.1 | 2.7 | did not induce | 2.02 | 18.02 | 10.37 | 4.61 | 1.10 | MDR-1 mRNA fold to C ([2]; HepaRG AHR-KO, normalised to GAPDH, fold vs UT): 1.31 fold; CYP3A4 mRNA induction ([2]; human, 24 h): only in HepaRG™ control 5F clone; PXR occupancy of proximal CYP3A4 and MDR1 promoter (semi-quantitative ChIP) [3]: augmented PXR occupancy; CYP3A4 mRNA induction ([5]; PXR-transfected LS180 cells): induced; MDR1 mRNA induction ([5]; PXR-transfected LS180 cells): induced; MDR1 mRNA fold to C ([5]; mock-transfected LS180 cells): 5.17; NF-κB localisation [6]: increased cytoplasmic
O=C(c1ccncc1)c1cc2ccccc2n1S(=O)(=O)c1ccccc1 [FKK5, (1-(phenylsulfonyl)-1H-indol-2-yl)(pyridin-4-yl)methanone] | 3.7 | 5.12 | 0.39 | 3.7 | 5.12 | 0.39 | did not induce | 0.81 | 1.92 | 1.03 | 0.96 | -2.5 | -6.4 | 0.3 | did not induce | 1.86 | 3.69 | 4.10 | 8.19 | 0.94 | CYP3A4 mRNA induction [2]: HepaRG™ AhR‐KO cells; MDR-1 mRNA fold to C ([2]; human, 24 h): 1.25 fold; MDR1 Fold Expression (2-ΔΔCt) ([3]; relative to DMSO = 1, each column a repeat experiment (Fig 1d)): 3.894 and 3.803 and 2.576 and 4.071; MDR1 mRNA fold to C ([5]; mock-transfected LS180 cells): 3.80; NF-κB localisation [6]: increased cytoplasmic
